Several values for one entry are separate records, joined by “and”; a condition that tells them apart may be missing. Equal entries are not always repeated. Activity calls are given as the source filed them. The rule behind the calls is not given here.
Experiments:
[1] = target: 5-hydroxytryptamine receptor 3A (Homo sapiens) (UniProt P46098); conditions: Compound concentration 10.0 uM
[2] = target: D(2) dopamine receptor (Homo sapiens) (UniProt P14416); conditions: Compound concentration 10.0 uM
[3] = target: Sodium-dependent dopamine transporter (Homo sapiens, UniProt Q01959); conditions: Compound concentration 10.0 uM
[4] = target: T1, 5-hydroxytryptamine receptor 1D (Homo sapiens, UniProt P28221); assay: GPCRScan assay: inhibition of 5-HT1D; parameters: radioligand conc. used [nm] 1.0 – 2.0, parental cells HEKT
T1 sequence (P28221 whole entry): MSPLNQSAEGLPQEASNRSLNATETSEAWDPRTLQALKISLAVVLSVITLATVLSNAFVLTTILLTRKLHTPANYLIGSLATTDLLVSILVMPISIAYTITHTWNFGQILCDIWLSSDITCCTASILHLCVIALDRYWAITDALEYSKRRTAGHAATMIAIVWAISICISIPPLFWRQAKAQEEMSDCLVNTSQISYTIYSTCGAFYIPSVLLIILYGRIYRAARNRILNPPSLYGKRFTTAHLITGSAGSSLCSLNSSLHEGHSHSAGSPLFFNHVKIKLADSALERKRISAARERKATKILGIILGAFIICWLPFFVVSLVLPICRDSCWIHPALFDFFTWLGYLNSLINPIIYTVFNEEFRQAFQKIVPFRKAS

[5] = target: Alpha-1B adrenergic receptor (Homo sapiens) (UniProt P35368); conditions: Compound concentration 10.0 uM
[6] = target: Alpha-1A adrenergic receptor (Homo sapiens) (UniProt P35348); conditions: Compound concentration 10.0 uM
[7] = target: Histamine H1 receptor (Homo sapiens) (UniProt P35367); conditions: Compound concentration 10.0 uM
[8] = target: Mu-type opioid receptor (Homo sapiens) (UniProt P35372); conditions: Compound concentration 10.0 uM
Mu-type opioid receptor (Homo sapiens), sequence (P35372 whole entry): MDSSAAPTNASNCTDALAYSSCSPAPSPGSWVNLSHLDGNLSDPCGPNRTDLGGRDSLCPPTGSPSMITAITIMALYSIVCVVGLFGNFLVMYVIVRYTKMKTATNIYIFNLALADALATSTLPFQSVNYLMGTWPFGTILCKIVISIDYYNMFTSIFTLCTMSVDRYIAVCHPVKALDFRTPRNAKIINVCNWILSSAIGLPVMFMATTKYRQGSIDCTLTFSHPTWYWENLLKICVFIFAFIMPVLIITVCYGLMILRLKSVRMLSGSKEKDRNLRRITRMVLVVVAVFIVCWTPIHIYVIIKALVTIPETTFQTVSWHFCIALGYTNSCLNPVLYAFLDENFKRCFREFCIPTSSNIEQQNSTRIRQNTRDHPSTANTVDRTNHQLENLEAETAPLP

[9] = target: Beta-3 adrenergic receptor (Homo sapiens) (UniProt P13945); conditions: Compound concentration 10.0 uM
[10] = target: Substance-K receptor (Homo sapiens) (UniProt P21452); assay: NK2 (h) CEREP ligand profiling; conditions: filed as agonist, Compound concentration 10.0 uM
[11] = GPCRScan assay: inhibition of GABA/PBR; parameters: species or system Rattus norvegicus; radioligand conc. used [nm] 0.3 – 2.0, parental cells brain tissue
[12] = target: 5-hydroxytryptamine receptor 7 (Homo sapiens) (UniProt P34969); conditions: Compound concentration 10.0 uM
[13] = target: Alpha-1D adrenergic receptor (Homo sapiens) (UniProt P25100); conditions: Compound concentration 10.0 uM
[14] = target: D(4) dopamine receptor (Homo sapiens) (UniProt P21917); conditions: Compound concentration 10.0 uM
[15] = target: T2, 5-hydroxytryptamine receptor 2B (Homo sapiens, UniProt P41595); conditions: Compound concentration 10.0 uM
T2 sequence (P41595 whole entry): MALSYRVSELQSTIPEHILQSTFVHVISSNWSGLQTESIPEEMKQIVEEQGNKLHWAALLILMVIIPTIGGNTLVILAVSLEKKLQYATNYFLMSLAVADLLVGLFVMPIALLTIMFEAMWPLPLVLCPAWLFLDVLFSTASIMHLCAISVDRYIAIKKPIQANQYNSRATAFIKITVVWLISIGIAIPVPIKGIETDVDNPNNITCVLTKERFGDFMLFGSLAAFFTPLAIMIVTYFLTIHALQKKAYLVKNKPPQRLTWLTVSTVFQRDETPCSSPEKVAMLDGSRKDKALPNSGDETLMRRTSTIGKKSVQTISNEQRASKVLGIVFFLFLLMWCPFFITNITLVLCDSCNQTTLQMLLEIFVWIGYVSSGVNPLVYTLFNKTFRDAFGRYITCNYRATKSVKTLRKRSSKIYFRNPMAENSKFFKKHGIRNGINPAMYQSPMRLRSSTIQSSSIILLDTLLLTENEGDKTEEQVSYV

[16] = target: T3, 5-hydroxytryptamine receptor 1B (Homo sapiens, UniProt P28222); assay: 5-HT1B (h) CEREP ligand profiling; conditions: filed as antagonist, Compound concentration 10.0 uM
T3 sequence (P28222 whole entry): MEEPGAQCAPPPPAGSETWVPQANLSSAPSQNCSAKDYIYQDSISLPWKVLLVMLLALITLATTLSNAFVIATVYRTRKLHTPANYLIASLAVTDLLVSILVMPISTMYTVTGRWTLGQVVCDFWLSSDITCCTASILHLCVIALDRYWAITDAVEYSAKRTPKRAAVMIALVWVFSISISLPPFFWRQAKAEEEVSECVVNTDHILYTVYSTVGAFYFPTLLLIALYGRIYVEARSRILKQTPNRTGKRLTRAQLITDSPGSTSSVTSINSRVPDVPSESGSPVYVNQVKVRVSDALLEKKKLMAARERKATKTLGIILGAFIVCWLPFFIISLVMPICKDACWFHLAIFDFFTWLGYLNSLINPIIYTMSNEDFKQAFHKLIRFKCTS

[17] = target: T4, Muscarinic acetylcholine receptor M4 (Homo sapiens) (UniProt P08173); assay: M4 (h) CEREP ligand profiling; conditions: filed as antagonist, Compound concentration 10.0 uM
T4 sequence (whole entry): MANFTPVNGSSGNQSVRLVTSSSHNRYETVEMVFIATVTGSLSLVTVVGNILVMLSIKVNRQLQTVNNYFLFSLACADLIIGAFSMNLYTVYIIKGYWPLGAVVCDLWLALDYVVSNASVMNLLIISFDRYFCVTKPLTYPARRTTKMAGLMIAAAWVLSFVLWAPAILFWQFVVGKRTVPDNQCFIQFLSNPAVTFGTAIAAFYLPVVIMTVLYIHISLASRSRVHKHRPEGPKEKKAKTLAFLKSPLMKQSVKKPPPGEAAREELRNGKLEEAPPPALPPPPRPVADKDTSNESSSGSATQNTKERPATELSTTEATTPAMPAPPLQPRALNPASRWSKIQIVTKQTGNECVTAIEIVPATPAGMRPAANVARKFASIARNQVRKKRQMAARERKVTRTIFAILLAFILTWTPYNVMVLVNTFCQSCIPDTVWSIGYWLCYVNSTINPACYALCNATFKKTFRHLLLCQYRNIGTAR

[18] = target: Histamine H3 receptor (Homo sapiens) (UniProt Q9Y5N1); conditions: Compound concentration 10.0 uM
Spermine oxidase [19] = target: T5, Spermine oxidase (Homo sapiens, UniProt Q9NWM0); assay: Horseradish Peroxidase (HRP) Fluorescence Assay
T5 sequence (Q9NWM0 whole entry): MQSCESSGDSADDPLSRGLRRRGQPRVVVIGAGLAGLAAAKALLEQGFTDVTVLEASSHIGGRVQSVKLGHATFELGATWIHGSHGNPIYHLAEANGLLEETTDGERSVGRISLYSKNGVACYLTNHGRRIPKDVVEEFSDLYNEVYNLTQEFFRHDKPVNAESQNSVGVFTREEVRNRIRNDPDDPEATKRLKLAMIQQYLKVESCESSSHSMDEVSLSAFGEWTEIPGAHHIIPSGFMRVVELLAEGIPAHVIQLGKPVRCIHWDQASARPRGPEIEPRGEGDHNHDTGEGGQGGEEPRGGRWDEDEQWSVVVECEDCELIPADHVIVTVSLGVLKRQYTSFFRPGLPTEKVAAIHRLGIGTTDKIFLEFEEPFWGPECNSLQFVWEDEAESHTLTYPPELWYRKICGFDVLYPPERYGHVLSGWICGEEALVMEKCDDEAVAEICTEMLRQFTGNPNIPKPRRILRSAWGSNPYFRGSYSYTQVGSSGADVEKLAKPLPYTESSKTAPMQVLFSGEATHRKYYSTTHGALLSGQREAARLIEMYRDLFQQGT

[20] = target: Alpha-2A adrenergic receptor (Homo sapiens, UniProt P08913); assay: GPCRScan assay: inhibition of Alpha2A; parameters: radioligand conc. used [nm] 1.0 – 3.0, parental cells stable MDCK
[21] = target: Beta-1 adrenergic receptor (Homo sapiens) (UniProt P08588); conditions: Compound concentration 10.0 uM
Beta-1 adrenergic receptor (Homo sapiens), sequence (P08588 whole entry, looked up): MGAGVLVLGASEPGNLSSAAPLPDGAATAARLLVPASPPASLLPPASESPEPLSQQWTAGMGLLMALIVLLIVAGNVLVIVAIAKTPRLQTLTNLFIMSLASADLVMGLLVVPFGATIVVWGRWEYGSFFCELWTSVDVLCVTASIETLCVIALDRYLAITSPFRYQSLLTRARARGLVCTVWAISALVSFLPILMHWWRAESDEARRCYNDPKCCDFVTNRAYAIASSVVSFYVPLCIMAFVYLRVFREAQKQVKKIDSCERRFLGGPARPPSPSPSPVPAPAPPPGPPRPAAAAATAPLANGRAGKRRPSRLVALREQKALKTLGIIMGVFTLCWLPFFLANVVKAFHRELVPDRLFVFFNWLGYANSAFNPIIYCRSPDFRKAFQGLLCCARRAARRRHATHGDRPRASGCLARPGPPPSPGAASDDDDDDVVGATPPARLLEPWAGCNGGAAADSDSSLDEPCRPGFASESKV

[22] = target: Adenosine receptor A2a (Homo sapiens) (UniProt P29274); assay: A2A (h CEREP ligand profiling; conditions: filed as agonist, Compound concentration 10.0 uM
[23] = target: T4, Muscarinic acetylcholine receptor M4 (Homo sapiens); conditions: Compound concentration 10.0 uM
Rattus norvegicus = species: Rattus norvegicus; conditions: Compound concentration 10.0 uM
[24] = target: Adenosine receptor A3 (Homo sapiens) (UniProt P0DMS8); assay: A3 (h) CEREP ligand profiling; conditions: filed as agonist, Compound concentration 10.0 uM
[25] = target: T3, 5-hydroxytryptamine receptor 1B; conditions: Compound concentration 10.0 uM
[26] = target: Muscarinic acetylcholine receptor M1 (Homo sapiens) (UniProt P11229); conditions: Compound concentration 10.0 uM
Muscarinic acetylcholine receptor M1 (Homo sapiens), sequence (P11229 whole entry): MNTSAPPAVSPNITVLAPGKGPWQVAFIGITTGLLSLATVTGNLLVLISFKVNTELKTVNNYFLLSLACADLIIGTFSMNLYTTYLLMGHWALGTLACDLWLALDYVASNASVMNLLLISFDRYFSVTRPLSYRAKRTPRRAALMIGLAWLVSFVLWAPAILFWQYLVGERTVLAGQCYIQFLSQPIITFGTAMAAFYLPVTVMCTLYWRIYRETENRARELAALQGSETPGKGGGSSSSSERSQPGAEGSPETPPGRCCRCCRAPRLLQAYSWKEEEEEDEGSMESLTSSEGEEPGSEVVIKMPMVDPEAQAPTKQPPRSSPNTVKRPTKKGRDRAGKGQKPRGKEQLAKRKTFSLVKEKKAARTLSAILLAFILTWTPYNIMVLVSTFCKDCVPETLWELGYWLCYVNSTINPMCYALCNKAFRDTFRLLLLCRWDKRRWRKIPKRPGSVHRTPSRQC

[27] = target: Histamine H2 receptor (Homo sapiens) (UniProt P25021); conditions: Compound concentration 10.0 uM
Homo sapiens = species: Homo sapiens; assay: sigma (non-selective) (h) CEREP ligand profiling; conditions: filed as agonist, Compound concentration 10.0 uM
[28] = target: 5-hydroxytryptamine receptor 1E (Homo sapiens) (UniProt P28566); conditions: Compound concentration 10.0 uM
[29] = target: 3',5'-cyclic-AMP phosphodiesterase 4D (Homo sapiens) (UniProt Q08499); assay: PDE4D2 (h) CEREP ligand profiling; conditions: Compound concentration 10.0 uM
[30] = target: Muscarinic acetylcholine receptor M5 (Homo sapiens) (UniProt P08912); conditions: Compound concentration 10.0 uM
[31] = target: Delta-type opioid receptor (Homo sapiens) (UniProt P41143); conditions: Compound concentration 10.0 uM
[32] = target: Muscarinic acetylcholine receptor M3 (Homo sapiens) (UniProt P20309); conditions: Compound concentration 10.0 uM
[33] = target: T2, 5-hydroxytryptamine receptor 2B; assay: GPCRScan assay: inhibition of 5-HT2B; parameters: radioligand conc. used [nm] 1.0 – 2.0, parental cells stable HEK
[34] = target: Sigma non-opioid intracellular receptor 1 (Homo sapiens) (UniProt Q99720); conditions: Compound concentration 10.0 uM
Sigma non-opioid intracellular receptor 1 (Homo sapiens), sequence (Q99720 whole entry): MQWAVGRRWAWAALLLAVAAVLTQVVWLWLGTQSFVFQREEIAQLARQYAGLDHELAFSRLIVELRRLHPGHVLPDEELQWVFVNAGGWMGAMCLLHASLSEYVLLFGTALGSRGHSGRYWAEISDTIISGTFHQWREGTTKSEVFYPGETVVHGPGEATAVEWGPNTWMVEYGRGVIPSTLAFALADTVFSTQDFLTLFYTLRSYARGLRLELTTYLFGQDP

[35] = target: Alpha-2C adrenergic receptor (Homo sapiens) (UniProt P18825); conditions: Compound concentration 10.0 uM
[36] = target: Muscarinic acetylcholine receptor M2 (Homo sapiens) (UniProt P08172); conditions: Compound concentration 10.0 uM
[37] = target: Beta-2 adrenergic receptor (Homo sapiens) (UniProt P07550); conditions: Compound concentration 10.0 uM
[38] = target: Adenosine receptor A1 (Homo sapiens) (UniProt P30542); assay: A1 (h) CEREP ligand profiling; conditions: filed as antagonist, Compound concentration 10.0 uM
[39] = target: Melatonin receptor type 1A (Homo sapiens) (UniProt P48039); assay: MT1 (ML1A) (h) CEREP ligand profiling; conditions: filed as agonist, Compound concentration 10.0 uM
[40] = target: T3, 5-hydroxytryptamine receptor 1B; assay: GPCRScan assay: inhibition of 5-HT1B; parameters: radioligand conc. used [nm] 0.6 – 1.5, parental cells stable HEK
[41] = target: T6, Kappa-type opioid receptor (Homo sapiens, UniProt P41145); conditions: Compound concentration 10.0 uM
T6 sequence (P41145 whole entry): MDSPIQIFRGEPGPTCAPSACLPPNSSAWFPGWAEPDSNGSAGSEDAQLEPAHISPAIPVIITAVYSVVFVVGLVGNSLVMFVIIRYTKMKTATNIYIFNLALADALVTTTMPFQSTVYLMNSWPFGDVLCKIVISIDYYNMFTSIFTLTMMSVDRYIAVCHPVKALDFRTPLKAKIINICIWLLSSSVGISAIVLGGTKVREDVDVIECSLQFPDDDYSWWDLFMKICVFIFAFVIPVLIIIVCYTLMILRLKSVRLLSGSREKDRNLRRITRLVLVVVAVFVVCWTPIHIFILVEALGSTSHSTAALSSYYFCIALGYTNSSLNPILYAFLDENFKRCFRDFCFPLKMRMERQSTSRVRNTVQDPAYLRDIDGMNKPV

[42] = target: Alpha-2B adrenergic receptor (Homo sapiens) (UniProt P18089); conditions: Compound concentration 10.0 uM
[43] = target: 5-hydroxytryptamine receptor 2C (Homo sapiens) (UniProt P28335); conditions: Compound concentration 10.0 uM
5-hydroxytryptamine receptor 2C (Homo sapiens), sequence (P28335 whole entry): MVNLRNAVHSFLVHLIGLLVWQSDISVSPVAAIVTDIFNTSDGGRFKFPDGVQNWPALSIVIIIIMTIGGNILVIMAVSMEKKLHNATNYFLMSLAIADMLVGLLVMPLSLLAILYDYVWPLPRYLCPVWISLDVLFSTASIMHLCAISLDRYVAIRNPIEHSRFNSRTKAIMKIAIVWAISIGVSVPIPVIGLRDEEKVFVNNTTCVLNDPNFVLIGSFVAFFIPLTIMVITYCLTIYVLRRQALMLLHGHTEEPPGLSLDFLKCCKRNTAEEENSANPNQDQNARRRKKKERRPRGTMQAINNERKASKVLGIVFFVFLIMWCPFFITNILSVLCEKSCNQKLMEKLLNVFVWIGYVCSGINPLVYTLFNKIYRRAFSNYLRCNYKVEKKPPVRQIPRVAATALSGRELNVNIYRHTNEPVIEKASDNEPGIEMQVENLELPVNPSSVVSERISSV

[44] = target: 5-hydroxytryptamine receptor 2A (Homo sapiens) (UniProt P28223); conditions: Compound concentration 10.0 uM
5-hydroxytryptamine receptor 2A (Homo sapiens), sequence (P28223 whole entry): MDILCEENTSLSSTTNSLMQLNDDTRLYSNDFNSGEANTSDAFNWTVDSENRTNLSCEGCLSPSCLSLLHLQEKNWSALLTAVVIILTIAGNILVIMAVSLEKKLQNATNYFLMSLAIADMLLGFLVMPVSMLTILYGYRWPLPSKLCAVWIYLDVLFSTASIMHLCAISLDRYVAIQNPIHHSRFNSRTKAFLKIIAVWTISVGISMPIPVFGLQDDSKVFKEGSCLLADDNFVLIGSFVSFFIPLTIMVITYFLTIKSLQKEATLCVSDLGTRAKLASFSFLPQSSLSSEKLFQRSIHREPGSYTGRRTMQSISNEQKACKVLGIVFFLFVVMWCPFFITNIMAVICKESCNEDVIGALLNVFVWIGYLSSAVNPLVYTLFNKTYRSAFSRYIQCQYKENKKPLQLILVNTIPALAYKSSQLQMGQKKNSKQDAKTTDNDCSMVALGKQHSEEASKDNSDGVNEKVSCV

[45] = target: Histamine H4 receptor (Homo sapiens) (UniProt Q9H3N8); conditions: Compound concentration 10.0 uM
[46] = target: T7, Sigma intracellular receptor 2 (Homo sapiens, UniProt Q5BJF2); conditions: Compound concentration 10.0 uM
T7 sequence (Q5BJF2 whole entry): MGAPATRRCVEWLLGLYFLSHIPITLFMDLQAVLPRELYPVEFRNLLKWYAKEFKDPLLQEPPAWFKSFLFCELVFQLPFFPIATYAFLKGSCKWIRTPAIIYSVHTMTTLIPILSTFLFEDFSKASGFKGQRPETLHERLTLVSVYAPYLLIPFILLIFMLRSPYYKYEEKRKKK

[47] = target: Sodium-dependent noradrenaline transporter (Homo sapiens) (UniProt P23975); conditions: Compound concentration 10.0 uM
[48] = target: Alpha-2A adrenergic receptor (Homo sapiens) (UniProt P08913); conditions: Compound concentration 10.0 uM
[49] = target: 5-hydroxytryptamine receptor 2A (Homo sapiens) (UniProt P28223); assay: 5-HT2A (h) CEREP ligand profiling; conditions: filed as agonist, Compound concentration 10.0 uM
[50] = target: 5-hydroxytryptamine receptor 1A (Homo sapiens) (UniProt P08908); conditions: Compound concentration 10.0 uM
[51] = target: Peroxisomal N(1)-acetyl-spermine/spermidine oxidase (Homo sapiens, UniProt Q6QHF9); assay: HyPerBlu POAX enzymatic assay
D(3) dopamine receptor = D(3) dopamine receptor (Homo sapiens, UniProt P35462); conditions: Compound concentration 10.0 uM
[52] = target: D(1B) dopamine receptor (Homo sapiens) (UniProt P21918); conditions: Compound concentration 10.0 uM
Spermine oxidase [53] = target: T5, Spermine oxidase; assay: SMOX CETSA assay
[54] = target: T7, Sigma intracellular receptor 2; assay: GPCRScan assay: inhibition of Sigma 2; parameters: radioligand conc. used [nm] 5.0, parental cells HEKT
[55] = target: T2, 5-hydroxytryptamine receptor 2B; assay: 5-HT2B (h) CEREP ligand profiling; conditions: filed as agonist, Compound concentration 10.0 uM
[56] = target: T6, Kappa-type opioid receptor; assay: kappa (h) (KOP) CEREP ligand profiling; conditions: filed as agonist, Compound concentration 10.0 uM
[57] = target: Lysine-specific histone demethylase 1A (Homo sapiens, UniProt O60341); assay: HyPerBlu KDM1A enzymatic assay
[58] = target: T6, Kappa-type opioid receptor; assay: GPCRScan assay: inhibition of KOR; parameters: radioligand conc. used [nm] 0.6 – 1.2, parental cells stable HEK
[59] = target: T1, 5-hydroxytryptamine receptor 1D; conditions: Compound concentration 10.0 uM
[60] = target: Cholecystokinin receptor type A (Homo sapiens) (UniProt P32238); assay: CCK1 (CCKA) (h) CEREP ligand profiling; conditions: filed as agonist, Compound concentration 10.0 uM
[61] = target: Sodium-dependent serotonin transporter (Homo sapiens) (UniProt P31645); conditions: Compound concentration 10.0 uM
[62] = target: 5-hydroxytryptamine receptor 5A (Homo sapiens) (UniProt P47898); conditions: Compound concentration 10.0 uM
[63] = target: D(1A) dopamine receptor (Homo sapiens) (UniProt P21728); conditions: Compound concentration 10.0 uM
[64] = target: Alpha-2B adrenergic receptor (Homo sapiens, UniProt P18089); assay: GPCRScan assay: inhibition of Alpha2B; parameters: radioligand conc. used [nm] 1.5 – 2.0, parental cells HEKT

With O=C(NCCCn1ccnc1)c1cc2nc(-c3ccccc3)cc(-c3ccccc3)n2n1 the inhibition [1] was 25.6%, the inhibition [2] was 25.3% and the inhibition [3] was 47.7%. The Ki ([4]; read-out: Ki) was 318 nM and 219 nM, the Ki ([4]; read-out: pKi (converted)) was 195 nM and the inhibition [5] was 10.2%. It also gave an inhibition [6] of 3.52%, an inhibition [7] of 4.87% and an inhibition [8] of 24.8%. The inhibition [9] was -7.92%, the inhibition [10] was 56.8% and the Ki [11] was 498 nM. It also gave a pKi [11] of 6.3, an inhibition [12] of 8.26% and an inhibition [13] of 28.1%. It also gave an inhibition [14] of 20.9%, an inhibition [15] of 57.9% and an inhibition [16] of 62.1%. For the same compound, the inhibition [17] was 59.8%, the inhibition [18] was -7.55% and the Ki (Spermine oxidase [19]) was 9.9 nM (active). It also gave a Ki [20] of 3.83 µM, an inhibition [21] of 2.96% and an inhibition [22] of 75%. It also gave an inhibition [23] of 36.6%, an inhibition (Rattus norvegicus) of 114% and an inhibition [24] of 75.1%. It also gave an inhibition [25] of 104%, an inhibition [26] of 24.8% and an inhibition [27] of 26.9%. The inhibition (Homo sapiens) was 62.8%, the inhibition [28] was 0.95% and the inhibition [29] was 63%. The inhibition [30] was 37.9%, the inhibition [31] was 17.1% and the inhibition [32] was 32%. For the same compound, the Ki [33] was 897 nM, the inhibition [34] was 30.5% and the inhibition [35] was 20.1%. It also gave an inhibition [36] of 24.3%, an inhibition [37] of -4.5% and an inhibition [38] of 98.9%. It also gave an inhibition [39] of 58.8%, a Ki ([40]; read-out: Ki) of 478 nM and a Ki ([40]; read-out: pKi (converted)) of 407 nM. It also gave an inhibition [41] of 73.3%, an inhibition [42] of 42.2% and an inhibition [43] of 28.4%. For the same compound, the inhibition [44] was 27.4%, the inhibition [45] was 32.6% and the inhibition [46] was 76.7%. The inhibition [47] was 46%, the inhibition [48] was 64% and the inhibition [49] was 69.9%. For the same compound, the inhibition [50] was 13.1%, the IC50 [51] was 790 nM (not active) and the inhibition (D(3) dopamine receptor) was 40.5%. For the same compound, the inhibition [52] was 20.4%, the IC50 (Spermine oxidase [53]) was 1.2 µM (active) and the Ki [54] was 1920 nM. The inhibition [55] was 68.5%, the inhibition [56] was 74.1% and the IC50 [57] was > 60 µM (not active). For the same compound, the Ki [58] was 1170 nM, the inhibition [59] was 101% and the inhibition [60] was 70.3%. The inhibition [61] was 16.6%, the inhibition [62] was 17.5% and the inhibition [63] was 28.9%. It also gave a Ki [64] of 3.58 µM.

From ChEMBL document CHEMBL5058647, “Data for DCP probe JNJ-9350” (2022)
